From ChEMBL document CHEMBL6109096, “Synthesis, anti-allergic rhinitis evaluation and mechanism investigation of novel 1,2,4-triazole-enamides as CB1 R antagonist” (Eur J Med Chem, 2025)

What was measured:
RAW264.7 [1] = assay: Cytotoxicity against mouse RAW264.7 cells assessed as reduction in cell viability at 10 uM incubated for 24 hrs by CCK-8 assay; type: toxicity, cell-based; conditions: raw264.7, 24 h
RAW264.7 [2] = assay: Inhibition of IL-1beta (unknown origin) in mouse RAW264.7 relative to control; type: cell-based; conditions: dose or concentration not given here
RAW264.7 [3] = assay: Inhibition of IL-6 (unknown origin) in mouse RAW264.7 relative to control; type: cell-based; conditions: dose or concentration not given here

Structure (SMILES): CN(/C=C\c1ccccc1)C(=O)c1nc(-c2ccc(Br)cc2)n(-c2ccccc2)n1
- Activity (RAW264.7 [1]): Non-toxic

Structure (SMILES): CN(/C=C\c1ccccc1)C(=O)c1nc(-c2cccc3ccccc23)n(-c2ccccc2)n1
- inhibition (RAW264.7 [2]): 74%
- Activity (RAW264.7 [1]): Non-toxic
- inhibition (RAW264.7 [3]): 86%

Structure (SMILES): CN(/C=C\c1ccccc1)C(=O)c1nc(-c2ccc3ccccc3c2)n(-c2ccccc2)n1
- Activity (RAW264.7 [1]): Non-toxic

Structure (SMILES): CN(/C=C\c1ccccc1)C(=O)c1nc(CC(C)(C)C)n(-c2ccccc2)n1
- Activity (RAW264.7 [1]): Non-toxic

Structure (SMILES): Cc1cc(C)c(-c2nc(C(=O)N(C)/C=C\c3ccccc3)nn2-c2ccccc2)c(C)c1
- Activity (RAW264.7 [1]): Non-toxic

Structure (SMILES): CN(/C=C\c1ccccc1)C(=O)c1ncn(-c2ccccc2)n1
- Activity (RAW264.7 [1]): Non-toxic

Structure (SMILES): CN(/C=C\c1ccccc1)C(=O)c1nc(-c2ccc(Cl)cc2)n(-c2ccccc2)n1
- Activity (RAW264.7 [1]): Non-toxic

Structure (SMILES): CN(/C=C\c1ccccc1)C(=O)c1nc(-c2ccco2)n(-c2ccccc2)n1
- Activity (RAW264.7 [1]): Non-toxic

Structure (SMILES): CN(/C=C\c1ccccc1)C(=O)c1nc(-c2cccc(Cl)c2)n(-c2ccccc2)n1
- Activity (RAW264.7 [1]): Non-toxic

Structure (SMILES): CN(/C=C\c1ccccc1)C(=O)c1nc(-c2ccccc2Cl)n(-c2ccccc2)n1
- Activity (RAW264.7 [1]): Non-toxic

Structure (SMILES): Cc1ccccc1-c1nc(C(=O)N(C)/C=C\c2ccccc2)nn1-c1ccccc1
- Activity (RAW264.7 [1]): Non-toxic

Structure (SMILES): CN(/C=C\c1ccccc1)C(=O)/C=C/c1ccccc1
- inhibition (RAW264.7 [2]): 19%
